Experimental findings from paper PMC7139703, “Thiopurine Derivative-Induced Fpg/Nei DNA Glycosylase Inhibition: Structural, Dynamic and Functional Insights” (International Journal of Molecular Sciences, 2020) are described below.

In this assay the target is T1, LlFpg/DNA complex C1 (Lactococcus lactis subsp. cremoris, UniProt P42371).
T1 construct: made in house; host or cells: E. coli BH540 (fpg defective)
The assay can be described thus: EMSA, Fpg DNA binding to 14-mer [THF:C] duplex, complex C1 (lesion recognition complex, Fpg/DNA 1/1). The note with it: for IC50: 0.1 nM 14-mer [THF:C], preformed complex; for IC50 / number of TXn equivalents per one protein equivalent for 50% inhibition of DNA binding activity, C1: 0.25 nM Fpg; for number of TXn equivalents per one protein equivalent for 50% inhibition of DNA binding activity, C1: value in parentheses; for effect on stability of complex C1 in the presence of TCEP: [1/1] molar ratio TCEP/compound (1 mM each), Figure S6. From the text:
To complement this study, we examined the effect of TXn on the binding of Fpg to a short DNA duplex containing a tetrahydrofuran (THF), a non-cleavable AP site analog. The enzyme specifically recognizes THF and forms a stable abortive complex with DNA [18, 34, 35, 36]. […] A representative titration experiment (with and without TCEP) of the 14-mer [THF:C] Fpg formed two stable complexes with this short DNA probe that were easily observed by EMSA: a high-affinity complex C1 corresponding to the lesion recognition complex (LRC), with nanomolar affinity, and a complex C2 only observed at higher Fpg concentrations. C2 results in C1 titration by a second Fpg molecule. This finding illustrates that the crystal structure of Fpg bound to 8-oxoG-carbanucleotide-containing DNA [38] (Figure S5). The stability of each preformed complex was then examined by EMSA in the presence of 2TX or TXn. […] The enzyme inactivation mediated by 2TX through ZnF oxidation that directly affects the DNA binding properties of the enzyme is also in agreement with this last observation.
Figure 2 The effect of 2TX and TXn on Fpg DNA binding to abasic site-containing DNA. A 14-mer DNA duplex containing a tetrahydrofurane (THF) site as an abasic site analog was incubated with a limiting Fpg concentration (0.25 nM) with and without increasing concentrations of TXn. Incubation mixtures were then analyzed by electrophoretic mobility shift assay (EMSA), as described in the ‘Materials and Methods’. (a) Titration experiments with (+) and without (-) 2 mM tris(2-carboxyethyl)phosphine hydrochloride (TCEP) C1 and C2 are for the [1/1] and [2/1] Fpg/DNA complexes, respectively (see detailed in the text). (b) Fpg DNA binding concentration-dependence for 2TX and the more efficient TXn inhibitors. A representative EMSA autoradiography with 0.25 nM of Fpg alone (lane no) and 0.5, 2.5, 5, 10, 20, 40, 50, 250, 1000 µM is shown in the upper panel. IC50app^B corresponds to the TXn amount needed to halve the C1 complex formation and was extracted from the dose-response curves (lower panel; Table 1).
The DNA binding activity was measured using EMSA [37]. Briefly, 0.1 nM of the 5′-labeled 14-mer [THF:C] (see above) was incubated with the enzyme at 4 °C for 30 min in 25 mM HEPES/NaOH (pH 7.5), 150 mM NaCl, 5% glycerol, 0.1 mg/mL BSA and 8% DMSO. The incubation mixture was then loaded onto a native 10% polyacrylamide gel (Acryl/Bis 19/1) and electrophoresed at 25 V/cm for 90 min at 4 °C. After electrophoresis, the gels were dried and exposed overnight for autoradiography using a Typhoon imager and quantified with ImageQuant software. To evaluate the inhibitor effect of 2TX/TXn on the DNA binding activity of each Fpg/Nei enzyme, we first determined the experimental conditions required to bind 50% of the DNA probes without an inhibitor in the presence of 8% DMSO (limiting enzyme concentration). Under these conditions, we obtained the half-maximal DNA binding 0.25, 7 and 5 nM of Fpg, hNeil1 and mvNei1. We used this limited enzyme concentrations to evaluate the inhibitor effect of 2TX/TXn on the enzyme DNA binding activity. This effect was determined by the addition of the thio-compound in the pre-equilibrium mixture of the enzyme and DNA probe (30 min) and incubated for an additional 30 min at 4 °C. For the best inhibitors of Fpg, a dose-response curve was established from at least three independent experiments and the IC50 was determined (IC50^B, Table 1).
Background: A gel shift assay detects complexes by their altered migration in electrophoresis.

[1] abbreviates: DNA binding at 4 °C, read-out: IC50app^B (Fpg DNA binding) C1.
Where [2] appears, read: IC50app^B (Fpg DNA binding) C1, DNA binding at 4 °C.

SMILES strings stand for the structures. Read-outs that look alike come from different tables or passages of the source.

T1 sequence (P42371 2-273, one chain of several): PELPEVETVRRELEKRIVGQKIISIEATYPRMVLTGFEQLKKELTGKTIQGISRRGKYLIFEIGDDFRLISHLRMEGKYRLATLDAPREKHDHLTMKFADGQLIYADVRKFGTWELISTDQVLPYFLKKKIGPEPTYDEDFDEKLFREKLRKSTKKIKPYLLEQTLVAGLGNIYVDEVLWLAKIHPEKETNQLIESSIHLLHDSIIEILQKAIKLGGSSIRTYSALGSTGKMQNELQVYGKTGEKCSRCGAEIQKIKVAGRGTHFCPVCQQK

Consider `O=c1[nH]c(=S)[nH]c2nc[nH]c12` [Compound 2TX, 2-thioxanthine, reference compound], for which the IC50 under setting [1] was found to be 113 ± 17 µM.
For the compound `O=c1[nH]c(=S)[nH]c2[nH]c(=S)[nH]c12` [TX19], the “number of TXn equivalents per one protein equivalent for 50% inhibition of DNA binding activity, C1” value worked out at 68. Also, under setting [1], the IC50 was 17.1 ± 2.4 µM.
On to `O=c1[nH]c2[nH]c(=S)[nH]c(=O)c2[nH]1` [TX14, 2-thio-6,8-dioxopurine], for which the “number of TXn equivalents per one protein equivalent for 50% inhibition of DNA binding activity, C1” value is 100. The compound also came in with an IC50 under setting [2] of 25.1 ± 2.4 µM.
On to `FC(F)(F)c1nc(S)c2nc[nH]c2n1` [TX13, 2-trifluoromethyl-6-thiopurine], for which the “effect on stability of complex C1 in the presence of TCEP” value is “remained stable” and the “number of TXn equivalents per one protein equivalent for 50% inhibition of DNA binding activity, C1” value is on record as 98. The IC50 under setting [1] amounted to 6.1 ± 0.5 µM.
On to `Nc1ncnc2[nH]c(S)nc12` [TX27], for which the “effect on stability of complex C1 in the presence of TCEP” value is listed as “remained stable” and the “number of TXn equivalents per one protein equivalent for 50% inhibition of DNA binding activity, C1” value is 177. Besides, under setting [2], the IC50 stood at 44.2 ± 8 µM.
